The text below walks through data of patent US10174037B2, “Dihydropyrazolopyrimidinone compounds as PDE2 inhibitors” (Merck Sharp & Dohme Corp., priority 2015, dated 2019).

One test has as its target Rhesus PDE2A3 (Macaca mulatta, UniProt B3VTJ2). The experiment in a line: PDE2 fluorescence polarization (IMAP FP) assay, rhesus PDE2A3. The format is biochemical, rhesus macaque.
For another test, the target named is human PDE2A1 (Homo sapiens (Human), UniProt O00408). The experiment in a line: PDE selectivity IMAP FP assay, human PDE2A1. The settings on record: Human PDE2. The test is classed as biochemical. An outline of the steps: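 Compound titrations run against PDE2 in Tris HCl pH 7.2 buffer with MgCl2 and DTT for 60 min at room temperature, using 50 nM FAM-cAMP plus 1000 nM cGMP and enzyme giving 20% conversion.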
Chain of human PDE2A1 (O00408 other isoform, or with tags, fused parts or gaps): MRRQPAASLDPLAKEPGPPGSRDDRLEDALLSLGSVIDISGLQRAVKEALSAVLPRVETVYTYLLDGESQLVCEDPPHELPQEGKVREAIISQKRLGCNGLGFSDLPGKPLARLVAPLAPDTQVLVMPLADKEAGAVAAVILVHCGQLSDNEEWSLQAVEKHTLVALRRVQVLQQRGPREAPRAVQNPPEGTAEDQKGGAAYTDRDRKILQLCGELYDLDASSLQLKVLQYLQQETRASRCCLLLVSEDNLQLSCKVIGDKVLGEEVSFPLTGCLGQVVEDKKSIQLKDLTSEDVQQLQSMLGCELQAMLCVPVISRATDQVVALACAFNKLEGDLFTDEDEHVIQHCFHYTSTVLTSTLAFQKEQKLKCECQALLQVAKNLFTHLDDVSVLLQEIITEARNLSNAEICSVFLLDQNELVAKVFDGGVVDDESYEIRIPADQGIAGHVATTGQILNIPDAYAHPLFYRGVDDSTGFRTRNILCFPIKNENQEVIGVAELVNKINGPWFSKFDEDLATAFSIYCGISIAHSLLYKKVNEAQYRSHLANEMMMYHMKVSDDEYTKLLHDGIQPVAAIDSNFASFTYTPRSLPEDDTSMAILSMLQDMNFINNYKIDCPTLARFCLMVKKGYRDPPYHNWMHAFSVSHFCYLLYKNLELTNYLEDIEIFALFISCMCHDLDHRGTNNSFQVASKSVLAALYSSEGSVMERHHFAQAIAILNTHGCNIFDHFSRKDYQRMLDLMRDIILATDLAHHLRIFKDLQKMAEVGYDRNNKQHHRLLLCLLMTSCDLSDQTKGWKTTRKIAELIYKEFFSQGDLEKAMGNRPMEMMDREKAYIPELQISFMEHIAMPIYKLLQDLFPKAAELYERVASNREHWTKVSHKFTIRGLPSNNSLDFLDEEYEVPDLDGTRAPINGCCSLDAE

Where [1] appears, read: Lab B, read-out: Rhesus PDE2 Ki (nM) Lab B.
[2] abbreviates: Lab B, read-out: Human PDE2 Ki (nM) Lab B.
[3] abbreviates: Lab A, read-out: Rhesus PDE2 Ki (nM) Lab A.
The mark [4] stands for this setting: Lab A, read-out: Human PDE2 Ki (nM) Lab A.

Where two headings read alike, the source gives them in different places.

Chain of Rhesus PDE2A3 (B3VTJ2 1-941): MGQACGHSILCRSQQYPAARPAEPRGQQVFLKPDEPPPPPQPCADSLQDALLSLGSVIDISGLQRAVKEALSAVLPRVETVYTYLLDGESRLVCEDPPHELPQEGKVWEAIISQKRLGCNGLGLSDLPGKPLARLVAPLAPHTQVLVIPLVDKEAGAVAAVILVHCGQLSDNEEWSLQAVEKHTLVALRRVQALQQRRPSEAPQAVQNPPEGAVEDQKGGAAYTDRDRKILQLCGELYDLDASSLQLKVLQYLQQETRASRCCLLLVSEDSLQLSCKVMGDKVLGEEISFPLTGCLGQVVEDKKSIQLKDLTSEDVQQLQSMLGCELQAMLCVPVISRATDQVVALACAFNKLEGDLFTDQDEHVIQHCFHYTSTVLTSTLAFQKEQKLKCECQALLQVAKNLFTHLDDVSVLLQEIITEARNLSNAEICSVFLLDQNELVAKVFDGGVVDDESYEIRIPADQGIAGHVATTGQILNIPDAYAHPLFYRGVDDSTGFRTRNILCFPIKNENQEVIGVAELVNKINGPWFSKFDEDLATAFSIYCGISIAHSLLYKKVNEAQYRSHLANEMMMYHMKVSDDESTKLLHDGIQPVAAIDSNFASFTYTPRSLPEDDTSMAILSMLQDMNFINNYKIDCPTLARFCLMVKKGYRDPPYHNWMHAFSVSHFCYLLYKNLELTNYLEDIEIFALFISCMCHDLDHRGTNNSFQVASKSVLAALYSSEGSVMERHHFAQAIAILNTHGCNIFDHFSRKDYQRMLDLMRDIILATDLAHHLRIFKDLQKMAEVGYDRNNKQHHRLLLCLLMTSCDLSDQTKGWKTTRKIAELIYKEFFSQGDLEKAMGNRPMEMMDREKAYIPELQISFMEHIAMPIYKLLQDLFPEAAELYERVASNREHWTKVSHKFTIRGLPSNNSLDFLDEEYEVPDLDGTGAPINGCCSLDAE

Broadly, the Ki is the equilibrium dissociation constant of an inhibitor or competing ligand from its target. `CC(C)C(c1ccc(C(C)(F)F)c(F)c1)n1nc(CF)c2c(=O)[nH]c(N(C)C)nc21` (single isomer, unassigned) [Example 218, (R)- or (S)-1-(1-(4-(1,1-Difluoroethyl)-3-fluorophenyl)-2-methylpropyl)-6-(dimethylamino)-3-(fluoromethyl)-1H-pyrazolo[3,4-d]pyrimidin-4(5H)-one]: the Ki came out at 0.21 nM at Rhesus PDE2A3 (setting [1]) and 0.16 nM at human PDE2A1 (setting [2]).

Consider `CC(C)C(c1ccc(C(C)(F)F)c(F)c1)n1nc(CF)c2c(=O)[nH]c(N(C)C)nc21` (single isomer, unassigned) [Example 219, (S)- or (R)-1-(1-(4-(1,1-Difluoroethyl)-3-fluorophenyl)-2-methylpropyl)-6-(dimethylamino)-3-(fluoromethyl)-1H-pyrazolo[3,4-d]pyrimidin-4(5H)-one], for which the values for the Ki at Rhesus PDE2A3 (setting [1]) and at human PDE2A1 (setting [2]) were 0.03 nM and 0.022 nM, respectively.

Regarding `CC(C)C(c1ccc(C(F)(F)F)c(F)c1)n1nc(CF)c2c(=O)[nH]c(N(C)C)nc21` (single isomer, unassigned) [Example 221, (S)- or (R)-6-Dimethylamino)-1-(1-(3-fluoro-4-trifluoromethyl)phenyl)-2-methylpropyl)-3-(fluoromethyl)-1H-pyrazolo[3,4-d]pyrimidin-4(5H)-one], the figures for the Ki on Rhesus PDE2A3 (setting [1]) and on human PDE2A1 (setting [2]) were 0.067 nM and 0.046 nM, respectively.

Regarding `CCC(c1ccc(C(F)(F)F)c(F)c1)n1nc(CF)c2c(=O)[nH]c(N(C)C)nc21` (single isomer, unassigned) [Example 222, (R)- or (S)-6-(Dimethylamino)-1-(1-(3-fluoro-4-(trifluoromethyl)phenyl)propyl)-3-(fluoromethyl)-1H-pyrazolo[3,4-d]pyrimidin-4(5H)-one], the results for the Ki on Rhesus PDE2A3 (setting [1]) and at human PDE2A1 (setting [2]) were 0.063 nM and 0.044 nM, respectively.

`CC(c1ccc(C(F)(F)F)c(F)c1)n1nc(CC(F)(F)F)c2c(=O)[nH]c(O)nc21` (single isomer, unassigned) [Example 235, (S)- or (R)-1-(1-(3-Fluoro-4-(triduoromethyl)phenyl)ethyl)-6-hydroxy-3-(2,2,2-trifluoroethyl)-1H-pyrazolo[3,4-d]pyrimidin-4(5H)-one]: the Ki turned out to be 1.5 nM at Rhesus PDE2A3 (setting [1]) and 1.4 nM at human PDE2A1 (setting [2]).

For `CC(c1ccc(C(C)(C)C)cc1)n1nc(CC(F)(F)F)c2c(=O)[nH]c(O)nc21` (single isomer, unassigned) [Example 236, (R)- or (S)-1-(1-(4-tert-Butylphenyl)ethyl)-6-hydroxy-3-(2,2,2-trifluoroethyl)-1H-pyrazolo[3,4-d]pyrimidin-4(5H)-one], the Ki turned out to be 5 nM at Rhesus PDE2A3 (setting [1]) and 3.4 nM at human PDE2A1 (setting [2]).

Take `O=c1[nH]c(O)nc2c1c(CC(F)(F)F)nn2C(c1ccc(C(F)(F)F)c(F)c1)C1CC1` (single isomer, unassigned) [Example 238, (R)- or (S)-1-(Cyclopropyl(3-fluoro-4-(trifluoromethyl)phenyl)methyl)-6-hydroxy-3-(2,2,2-trifluoroethyl)-1H-pyrazolo[3,4-d]pyrimidin-4(5H)-one]: the figures for the Ki at Rhesus PDE2A3 (setting [1]) and on human PDE2A1 (setting [2]) were 7.1 nM and 5.8 nM, respectively.

Consider `CC(C)C(c1ccc(C(F)(F)F)cc1)n1nc(CC(F)(F)F)c2c(=O)[nH]c(O)nc21` (single isomer, unassigned) [Example 240, (R)- or (S)-6-Hxdroxy-1-(2-methyl-1-(4-(trifluoromethyl)phenyl)propyl)-3-(2,2,2-trifluoroethyl)-1H-pyrazolo[3,4-d]pyrimidin-4(5H)-one], for which the inhibitory constant (Ki) at Rhesus PDE2A3 (setting [1]) worked out at 11 nM; on human PDE2A1 (setting [2]), 8 nM.

In the case of `CC1(C(c2ccc(C(F)(F)F)cc2)n2nc(CC(F)(F)F)c3c(=O)[nH]c(O)nc32)CC1` (single isomer, unassigned) [Example 244, (R)- or (S)-6-Hydroxy-1-((1-methylcyclopropyl)(4-(trifluoromethyl)phenyl)methyl)-3-(2,2,2-trifluoroethyl)-1H-pyrazolo[3,4-d]pyrimidin-4(5H)-one], the Ki at Rhesus PDE2A3 (setting [1]) and at human PDE2A1 (setting [2]) was 21 nM throughout.

Turning to `CC(C)(C)c1ccc(C(C2CC2)n2nc(CC(F)(F)F)c3c(=O)[nH]c(O)nc32)cc1` (single isomer, unassigned) [Example 250, (R)- or (S)-1-((4-tert-Butylphenyl)(cyclopropyl)methyl)-6-hydroxy-3-(2,2,2-trifluoroethyl)-1H-pyrazolo(3,4-d]pyrimidin-4(5H)-one], the Ki on Rhesus PDE2A3 (setting [1]) amounted to 26 nM; at human PDE2A1 (setting [2]), 27 nM.

On to `O=c1[nH]c(O)nc2c1c(CC(F)(F)F)nn2C(c1ccc(OC(F)(F)F)c(F)c1)C1CC1` (single isomer, unassigned) [Example 252, (R)- or (S)-1-(Cyclopropyl(3-fluoro-4-(trifluoromethoxy)phenyl)methyl)-6-hydroxy-3-(2,2,2-trifluoroethyl)-1H-pyrazolo[3,4-d]pyrimidin-4(5H)-one], for which the Ki on Rhesus PDE2A3 (setting [1]) worked out at 68 nM; on human PDE2A1 (setting [2]), 73 nM.

In the case of `CC(c1ccc(C(F)(F)F)cc1)n1nc(C(F)(F)F)c2c(=O)[nH]c(O)nc21` (single isomer, unassigned) [Example 254, (R)- or (S)-6-Hydroxy-3-(trifluoromethyl)-1-(1-(4-(trifluoromethyl)phenyl)ethyl)-1H-pyrazolo[3,4-d]pyrimidin-4(5H)-one], the values for the Ki at Rhesus PDE2A3 (setting [1]) and on human PDE2A1 (setting [2]) were 102 nM and 121 nM, respectively.

As for `CC(c1ccc(C(F)(F)F)cc1)n1nc(C(F)(F)F)c2c(=O)[nH]c(O)nc21` (single isomer, unassigned) [Example 255, (S)- or (R)-6-Hydroxy-3-(trifluoromethyl)-1-(1-(4-(trifluoromethyl)phenyl)ethyl)-1H-pyrazolo[3,4-d]pyrimidin-4(5H)-one], the Ki at Rhesus PDE2A3 (setting [1]) came to 3.7 nM; at human PDE2A1 (setting [2]), 2.4 nM.

Take `CC(c1ccc(C(F)(F)F)cc1)n1nc(CC(F)(F)F)c2c(=O)[nH]c(O)nc21` (single isomer, unassigned) [Example 256, (R)- or (S)-6-Hydroxy-3-(2,2,2-trifluoroethyl)-1-{1-[4-(trifluoromethyl)phenyl]ethyl}-1,5-dihydro-4H-pyrazolo[3,4-d]pyrimidin-4-one]: the Ki at Rhesus PDE2A3 (setting [3]) is 166 nM; on human PDE2A1 (setting [4]), 126 nM.

As to `CC(c1ccc(C(F)(F)F)cc1)n1nc(CC(F)(F)F)c2c(=O)[nH]c(O)nc21` (single isomer, unassigned) [Example 257, (S)- or (R)-6-Hydroxy-3-(2,2,2-trifluoroethyl)-1-{1-(4-(trifluoromethyl)phenyl]ethyl}-1,5-dihydro-4H-pyrazolo[3,4-d]pyrimidin-4-one], the Ki on Rhesus PDE2A3 (setting [3]) was found to be 0.96 nM; on Rhesus PDE2A3 (setting [1]), 1.5 nM; at human PDE2A1 (setting [4]) it was 0.68 nM; at human PDE2A1 (setting [2]) it was 2 nM.

On to `CC(C)C(c1ccc(C(F)(F)F)c(F)c1)n1nc(CC(F)(F)F)c2c(=O)[nH]c(O)nc21` (single isomer, unassigned) [Example 258], for which the Ki on Rhesus PDE2A3 (setting [1]) worked out at 10 nM; on human PDE2A1 (setting [2]), 9.7 nM.

Take `CC(C)C(c1ccc(C(C)(C)C)cc1)n1nc(CC(F)(F)F)c2c(=O)[nH]c(O)nc21` (single isomer, unassigned) [Example 260, (R)- or (S)-1-(1-(4-tert-Butylphenyl)-2-methylpropyl)-6-hydroxy-3-(2,2,2-trifluoroethyl)-1H-pyrazolo[3,4-d]pyrimidin-4(5H)-one]: the values for the Ki on Rhesus PDE2A3 (setting [1]) and on human PDE2A1 (setting [2]) were 26 nM and 25 nM, respectively.
